Measurements reported in US10870625B2, “Zwitterionic propargyl-linked antifolates useful for treating bacterial infections” (THE UNIVERSITY OF CONNECTICUT, priority 2016, dated 2020).
In brackets after ≈: the same amount, converted by molar mass.

Legend:
[1] = target: E. coli (Ec) DHFR (Escherichia coli (strain K12), UniProt P0ABQ4); test: E. coli DHFR enzyme inhibition (NADPH oxidation, 340 nm); type: biochemical; details: Table 2
[2] = system: Sa(H30N) strain
[3] = target: S. aureus (Sa) DHFR (Staphylococcus aureus, UniProt P0A017); type: biochemical; details: Table 2
[4] = system: E. coli (ATCC 25922); test: E. coli MIC, microdilution broth assay; type: cell-based, Escherichia coli; details: Table 2; wild-type E. coli
Description: Minimum inhibitory concentrations were determined using E. coli (ATCC 25922) and the microdilution broth assay with an inoculum of […] CFU/mL in Isosensitest Broth (Oxoid).

[5] = target: human (Hu) DHFR (Homo sapiens (Human), UniProt P00374); test: Human DHFR enzyme inhibition (Example 5); type: biochemical; details: Table 2
[6] = system: Mtb; test: M. tuberculosis MIC, microtiter broth dilution (Table 6); type: cell-based, Mycobacterium tuberculosis
Description: (provided by Leonid Heifets).
Each isolate was tested in duplicate.

[7] = system: E. coli NR698; type: cell-based, Escherichia coli; details: Table 2
[8] = system: S. aureus ATCC strain 43300; test: microbe, parasite or virus in culture; type: cell-based, Staphylococcus aureus
[9] = target: MtbDHFR (Mycobacterium tuberculosis (strain ATCC 25618 / H37Rv), UniProt P9WNX1); details: data from Nixon et al., Chem. Biol. (2014); cited from earlier work

SMILES | IC50 [1] [nM] | MIC Sa(H30N) [2] [µg/mL] | IC50 [3] [nM] | MIC E. coli 25922 [4] [µg/mL] | IC50 [5] [nM] | MIC Mtb [6] [µg/mL] | MIC E. coli NR698 [7] [µg/mL] | MIC S. aureus 43300 [8] [µg/mL] | MIC Sa43300 ([8]; Table 12, wild-type strain) [µg/mL] | IC50 [9] [nM] | MIC ([6]; Mycobacterium tuberculosis) [µg/mL]
CCc1nc(N)nc(N)c1C#CC(SC)c1cc(-c2ccc(C(=O)O)cc2)ccc1OC (centres unmarked) [Compound 29] | 177 | 0.1563 (≈ 0.348 µM) | 37 | >20 | 266 | 0.5 (≈ 1.11 µM) | 0.0391 (≈ 0.0872 µM) | 0.625 (≈ 1.39 µM) | 0.0391 (≈ 0.0872 µM) | – | –
COc1cc(NCc2ccc3nc(N)nc(N)c3c2C)cc(OC)c1OC [Trimetrexate, trimetrexate, reference compound] | – | – | – | – | – | – | – | – | – | 17 | 4 (≈ 10.8 µM)
